Key:
[1] = biological target: Adenosine receptors; A1 & A3 (Homo sapiens) (UniProt P30542+P0DMS8); test: Selectivity ratio of Ki for human adenosine A1 receptor to Ki for human adenosine A3 receptor
[2] = species on record: Homo sapiens; test: Selectivity ratio of Ki for human adenosine A2A receptor to Ki for human adenosine A3 receptor
[3] = biological target: Adenosine receptor A2a (Homo sapiens, UniProt P29274); test: Binding affinity to human adenosine A2A receptor
[4] = biological target: T1, Adenosine receptor A3 (Homo sapiens, UniProt P0DMS8); test: Binding affinity to human adenosine A3 receptor
T1 sequence (P0DMS8 whole entry): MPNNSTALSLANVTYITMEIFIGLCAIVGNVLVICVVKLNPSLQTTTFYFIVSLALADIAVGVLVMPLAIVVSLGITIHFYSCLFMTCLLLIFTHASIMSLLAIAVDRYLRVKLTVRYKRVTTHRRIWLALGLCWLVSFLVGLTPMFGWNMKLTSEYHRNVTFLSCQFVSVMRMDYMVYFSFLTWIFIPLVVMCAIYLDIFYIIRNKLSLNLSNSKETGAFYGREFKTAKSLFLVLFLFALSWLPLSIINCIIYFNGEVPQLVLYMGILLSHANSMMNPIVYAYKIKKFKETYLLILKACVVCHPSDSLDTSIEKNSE

[5] = biological target: T2, Adenosine receptor A1 (Homo sapiens, UniProt P30542); test: Binding affinity to human adenosine A1 receptor
T2 sequence (P30542 whole entry): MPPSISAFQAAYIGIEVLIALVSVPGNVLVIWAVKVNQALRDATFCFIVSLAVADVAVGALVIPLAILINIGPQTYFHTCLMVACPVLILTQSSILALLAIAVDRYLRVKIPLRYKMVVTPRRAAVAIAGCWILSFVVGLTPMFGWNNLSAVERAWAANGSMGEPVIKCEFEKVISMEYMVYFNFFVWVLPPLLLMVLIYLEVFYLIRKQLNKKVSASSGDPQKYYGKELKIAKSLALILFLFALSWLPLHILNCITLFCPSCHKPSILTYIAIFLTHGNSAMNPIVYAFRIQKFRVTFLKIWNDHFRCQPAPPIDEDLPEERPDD

Chain of Adenosine receptor A2a (P29274 whole entry): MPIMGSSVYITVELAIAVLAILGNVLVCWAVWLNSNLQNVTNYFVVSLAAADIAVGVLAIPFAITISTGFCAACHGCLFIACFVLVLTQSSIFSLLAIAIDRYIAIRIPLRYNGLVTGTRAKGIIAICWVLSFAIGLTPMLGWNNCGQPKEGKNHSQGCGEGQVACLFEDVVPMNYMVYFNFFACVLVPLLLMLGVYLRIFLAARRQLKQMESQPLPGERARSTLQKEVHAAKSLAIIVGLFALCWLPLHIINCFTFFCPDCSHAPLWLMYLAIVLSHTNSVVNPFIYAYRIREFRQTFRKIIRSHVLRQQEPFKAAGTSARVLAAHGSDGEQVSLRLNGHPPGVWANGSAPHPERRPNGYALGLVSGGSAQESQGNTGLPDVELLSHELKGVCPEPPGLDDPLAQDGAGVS

SMILES: CNC(=O)[C@H]1O[C@@H](n2cnc3c(NC)nc(C#Cc4ccc(F)cc4)nc32)[C@H](O)[C@@H]1O
- Ratio Ki [1]: 12400
- Ratio Ki [2]: 29500

SMILES: CNC(=O)[C@H]1O[C@@H](n2cnc3c(N)nc(C#Cc4ccccc4)nc32)[C@H](O)[C@@H]1O
- Ki [3]: 1760 nM
- Ki ([4]; read-out: Ki): 7.3 nM
- Ki [5]: 3920 nM

SMILES: CONc1nc(C#Cc2ccccc2)nc2c1ncn2[C@@H]1O[C@H](CO)[C@@H](O)[C@H]1O
- Ki ([4]; read-out: pKi (converted)): 3.98 nM

SMILES: CNC(=O)[C@H]1O[C@@H](n2cnc3c(NC)nc(C#Cc4ccc(C(C)=O)cc4)nc32)[C@H](O)[C@@H]1O
- Ratio Ki [1]: 30900
- Ratio Ki [2]: 21300
- Ki ([4]; read-out: pKi (converted)): 0.331 nM

SMILES: CNC(=O)[C@H]1O[C@@H](n2cnc3c(NC)nc(C#Cc4ccccc4)nc32)[C@H](O)[C@@H]1O
- Ratio Ki [1]: 85
- Ratio Ki [2]: 115

SMILES: CNC(=O)[C@H]1O[C@@H](n2cnc3c(NC)nc(C#Cc4ccccn4)nc32)[C@H](O)[C@@H]1O
- Ratio Ki [1]: 21800
- Ratio Ki [2]: 60800

Reference: ChEMBL document CHEMBL1275355, “Molecular modeling study on potent and selective adenosine A(3) receptor agonists” (Bioorg Med Chem, 2010)
